In the supplement of paper PMC11208160:

assay: recombinant barcode read abundance after kanamycin selection (control-corrected) (log10(CPM+1)); higher = more efficient recombination; sequences stand for … in AGTGCAGAGAAAATCGGCCAGTTTTCTCTGCCTGCAGTCCGCATGCCGT…AGATTTATGCAGCGGACTGCCTTTCTCCCAAAGTGATAAACCGGACAGTATCATGGACCGGTTTTCCCGGTAATCCGTATTTGCAAGGTTGGTTTCACT; site = the 11-nt target
How it was run: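 Targets were screened in pooled form in E. coli against IS621 bridge RNA target-binding loops. Recombination efficiency is based on barcode counts at recombinant junctions in counts per million, averaged and corrected for the control. Numbers are shown as log10(CPM+1), with duplicate plates on chloramphenicol/ampicillin LB agar (control) or chloramphenicol/ampicillin/kanamycin with 0.1 mM IPTG.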
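Note: IS621 recombinase and bridge RNA in Escherichia coli cells.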

Row | Sequence | recombinant barcode read abundance (log10)
1 | CTTCGAGCTTGGGTTCTAACCTGTTGCTG (site CTTCGAGCTCG) | 0.184
2 | CTTCGAGCTTGGGTTCTAACCTGTTGCTG (site CTTCGAGCTCT) | 0.294
3 | CTTCGCACTTGGGTTCTAACCTGTTGCCT (site CATCGCACTAG) | 0.0381
4 | CTTCGCACTTGGGTTCTAACCTGTTGCCT (site CCTCGCACTAG) | 0.0814
5 | CTTCGCACTTGGGTTCTAACCTGTTGCCT (site CGTCGCACTAG) | 0.0111
6 | CTTCGCACTTGGGTTCTAACCTGTTGCCT (site CTTCGCACTAG) | 0.0708
7 | CTTCGGGCTTGGGTTCTAACCTGTTGCAT (site CTTCGGGCTAT) | 1.26
8 | CTTCGGGCTTGGGTTCTAACCTGTTGCAT (site CTTTGAGCTAT) | 0.242
9 | CTTGCATCTTGGGTTCTAACCTGTTGCCT (site CTTGCATCTAG) | 0.383
10 | CTTGCATCTTGGGTTCTAACCTGTTGCCT (site GGGCACACTGT) | 0.293
11 | CTTGGAACTTGGGTTCTAACCTGTTGCCT (site CTTGGAACTAG) | 0.224
12 | CTTGGAACTTGGGTTCTAACCTGTTGCCT (site CTTGGACCTAG) | 0.242
13 | CTTGGAACTTGGGTTCTAACCTGTTGCCT (site CTTGGAGCTAG) | 0
14 | CTTGGAACTTGGGTTCTAACCTGTTGCCT (site CTTGGATCTAG) | 0.228
15 | CTTGGATCTTGGGTTCTAACCTGTTGCCT (site CTTGGAACTAG) | 0.142
16 | CTTGGATCTTGGGTTCTAACCTGTTGCCT (site CTTGGACCTAG) | 0.116
17 | CTTGGATCTTGGGTTCTAACCTGTTGCCT (site CTTGGAGCTAG) | 0.0716
18 | CTTGGATCTTGGGTTCTAACCTGTTGCCT (site CTTGGATCTAG) | 0.913
19 | CTTGGGCCTTGGGTTCTAACCTGTTGCCT (site CATGGGCCTAG) | 0.0436
20 | CTTGGGCCTTGGGTTCTAACCTGTTGCCT (site CCTGGGCCTAG) | 0.16
21 | CTTGGGCCTTGGGTTCTAACCTGTTGCCT (site CGTGGGCCTAG) | 0.186
22 | CTTGGGCCTTGGGTTCTAACCTGTTGCCT (site CTTGGGCCTAG) | 0.417

Row | Sequence | recombinant barcode read abundance (log10)
23 | CTTTGAACTTGGGTTCTAACCTGTTGCTA (site CTTTGAACTTA) | 0.016
24 | CTTTGAACTTGGGTTCTAACCTGTTGCTA (site TCGATCCCTAC) | 0.102
25 | CTTTGGCCTTGGGTTCTAACCTGTTGCTT (site CCTTGGGCTAA) | 0.439
26 | CTTTGGCCTTGGGTTCTAACCTGTTGCTT (site CTTTGGCCTAA) | 0.0961
27 | CTTTGTGCTTGGGTTCTAACCTGTTGCCT (site CTTAGGGCTAG) | 0.32
28 | CTTTGTGCTTGGGTTCTAACCTGTTGCCT (site CTTTGTGCTAG) | 0.129
29 | GAAACTGCTTGGGTTCTAACCTGTTGCCT (site GAAACTGCTAG) | 0.736
30 | GAAACTGCTTGGGTTCTAACCTGTTGCCT (site GACACTGCTAG) | 0.211
31 | GAAACTGCTTGGGTTCTAACCTGTTGCCT (site GAGACTGCTAG) | 0.158
32 | GAAACTGCTTGGGTTCTAACCTGTTGCCT (site GATACTGCTAG) | 0.0634
33 | GAAAGCTCTTGGGTTCTAACCTGTTGCGT (site GAAAGCTCTAC) | 2.99
34 | GAAAGCTCTTGGGTTCTAACCTGTTGCGT (site TCCTATGCTCG) | 0.0782
35 | GAAAGTGCTTGGGTTCTAACCTGTTGCCT (site CAAAGTGCTAG) | 0.0857
36 | GAAAGTGCTTGGGTTCTAACCTGTTGCCT (site GAAAGTGCTAG) | 1.23
37 | GAAATAACTTGGGTTCTAACCTGTTGCGT (site AGCCCTCCTCT) | 0.169
38 | GAAATAACTTGGGTTCTAACCTGTTGCGT (site GAAATAACTAC) | 0.995
39 | GAAATGTCTTGGGTTCTAACCTGTTGCCT (site GAAATGTCTAG) | 1.75
40 | GAAATGTCTTGGGTTCTAACCTGTTGCCT (site GCAATGTCTAG) | 0.0338
41 | GAAATGTCTTGGGTTCTAACCTGTTGCCT (site GGAATGTCTAG) | 0.262
42 | GAAATGTCTTGGGTTCTAACCTGTTGCCT (site GTAATGTCTAG) | 0.634
43 | GAACCTACTTGGGTTCTAACCTGTTGCGG (site GAACCTACTCC) | 1.77
